Results reported in ChEMBL document CHEMBL5463729, “Data for DCP probe BAY 1753011” (2023).

What was measured:
Conditions in all cases: Compound concentration 10.0 uM
[1] = biological target: Cyclin-dependent kinase 1/cyclin B1 (Homo sapiens) (UniProt P06493+P14635); assay: Inhibition of CDK1/cyclinB(h) at 10.0 µM in the Eurofins Kinase panel; assay type: protein-complex assay
[2] = biological target: Fibroblast growth factor receptor 1 (Homo sapiens) (UniProt P11362); assay: Inhibition of FGFR1(h) at 10.0 µM in the Eurofins Kinase panel
[3] = biological target: Tyrosine-protein kinase ITK/TSK (Homo sapiens) (UniProt Q08881); assay: Inhibition of Itk(h) at 10.0 µM in the Eurofins Kinase panel
[4] = biological target: MAP kinase-activated protein kinase 3 (Homo sapiens) (UniProt Q16644); assay: Inhibition of MAPKAP-K3(h) at 10.0 µM in the Eurofins Kinase panel
[5] = biological target: Serine/threonine-protein kinase Nek2 (Homo sapiens) (UniProt P51955); assay: Inhibition of NEK2(h) at 10.0 µM in the Eurofins Kinase panel
[6] = biological target: Serine/threonine-protein kinase PAK 1 (Homo sapiens) (UniProt Q13153); assay: Inhibition of PAK1(h) at 10.0 µM in the Eurofins Kinase panel
[7] = biological target: Serine/threonine-protein kinase PAK 4 (Homo sapiens) (UniProt O96013); assay: Inhibition of PAK4(h) at 10.0 µM in the Eurofins Kinase panel
[8] = biological target: Serine/threonine-protein kinase MARK2 (Homo sapiens) (UniProt Q7KZI7); assay: Inhibition of PAR-1Balpha(h) at 10.0 µM in the Eurofins Kinase panel
[9] = biological target: Protein kinase C alpha type (Homo sapiens) (UniProt P17252); assay: Inhibition of PKCalpha(h) at 10.0 µM in the Eurofins Kinase panel
[10] = biological target: Protein kinase C beta type (Homo sapiens) (UniProt P05771); assay: Inhibition of PKCbetaI(h) at 10.0 µM in the Eurofins Kinase panel
[11] = biological target: Protein kinase C eta type (Homo sapiens) (UniProt P24723); assay: Inhibition of PKCeta(h) at 10.0 µM in the Eurofins Kinase panel
[12] = biological target: Protein kinase C iota type (Homo sapiens) (UniProt P41743); assay: Inhibition of PKCiota(h) at 10.0 µM in the Eurofins Kinase panel
[13] = biological target: cGMP-dependent protein kinase 2 (Homo sapiens) (UniProt Q13237); assay: Inhibition of PRKG2(h) at 10.0 µM in the Eurofins Kinase panel
[14] = biological target: cAMP-dependent protein kinase catalytic subunit PRKX (Homo sapiens) (UniProt P51817); assay: Inhibition of PrKX(h) at 10.0 µM in the Eurofins Kinase panel
[15] = biological target: Proto-oncogene tyrosine-protein kinase ROS (Homo sapiens) (UniProt P08922); assay: Inhibition of Ros(h) at 10.0 µM in the Eurofins Kinase panel
[16] = biological target: Mitogen-activated protein kinase 12 (Homo sapiens) (UniProt P53778); assay: Inhibition of SAPK3(h) at 10.0 µM in the Eurofins Kinase panel
[17] = biological target: Serine/threonine-protein kinase TAO2 (Homo sapiens) (UniProt Q9UL54); assay: Inhibition of TAO2(h) at 10.0 µM in the Eurofins Kinase panel
[18] = biological target: Serine/threonine-protein kinase TAO3 (Homo sapiens) (UniProt Q9H2K8); assay: Inhibition of TAO3(h) at 10.0 µM in the Eurofins Kinase panel
[19] = biological target: Tyrosine-protein kinase Tec (Homo sapiens) (UniProt P42680); assay: Inhibition of Tec(h) activated at 10.0 µM in the Eurofins Kinase panel
[20] = biological target: NT-3 growth factor receptor (Homo sapiens) (UniProt Q16288); assay: Inhibition of TrkC(h) at 10.0 µM in the Eurofins Kinase panel
[21] = biological target: Death-associated protein kinase 3 (Homo sapiens) (UniProt O43293); assay: Inhibition of ZIPK(h) at 10.0 µM in the Eurofins Kinase panel
[22] = biological target: PI3K p110 beta/p85 alpha (Homo sapiens) (UniProt P27986+P42338); assay: Inhibition of PI3 Kinase (p110b/p85a)(h) at 10.0 µM in the Eurofins Kinase panel; assay type: protein-complex assay
[23] = biological target: T1, Muscarinic acetylcholine receptor M5 (Homo sapiens) (UniProt P08912)
T1 sequence (whole entry): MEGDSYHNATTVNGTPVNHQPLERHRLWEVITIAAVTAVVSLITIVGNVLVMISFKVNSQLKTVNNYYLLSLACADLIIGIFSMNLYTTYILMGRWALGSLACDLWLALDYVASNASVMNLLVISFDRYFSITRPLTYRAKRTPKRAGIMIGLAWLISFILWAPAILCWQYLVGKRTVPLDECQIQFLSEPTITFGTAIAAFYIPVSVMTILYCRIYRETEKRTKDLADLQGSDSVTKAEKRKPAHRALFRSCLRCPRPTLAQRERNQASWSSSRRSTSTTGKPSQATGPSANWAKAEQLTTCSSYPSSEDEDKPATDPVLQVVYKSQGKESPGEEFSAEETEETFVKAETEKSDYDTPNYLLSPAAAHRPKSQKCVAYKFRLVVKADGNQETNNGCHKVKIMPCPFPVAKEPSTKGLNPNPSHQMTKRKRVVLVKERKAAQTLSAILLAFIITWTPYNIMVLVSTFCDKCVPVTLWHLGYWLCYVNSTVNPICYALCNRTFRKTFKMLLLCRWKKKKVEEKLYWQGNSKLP

[24] = biological target: Adenosine receptor A3 (Homo sapiens) (UniProt P0DMS8)
[25] = biological target: T2, Muscarinic acetylcholine receptor M2 (Homo sapiens) (UniProt P08172)
T2 sequence (whole entry): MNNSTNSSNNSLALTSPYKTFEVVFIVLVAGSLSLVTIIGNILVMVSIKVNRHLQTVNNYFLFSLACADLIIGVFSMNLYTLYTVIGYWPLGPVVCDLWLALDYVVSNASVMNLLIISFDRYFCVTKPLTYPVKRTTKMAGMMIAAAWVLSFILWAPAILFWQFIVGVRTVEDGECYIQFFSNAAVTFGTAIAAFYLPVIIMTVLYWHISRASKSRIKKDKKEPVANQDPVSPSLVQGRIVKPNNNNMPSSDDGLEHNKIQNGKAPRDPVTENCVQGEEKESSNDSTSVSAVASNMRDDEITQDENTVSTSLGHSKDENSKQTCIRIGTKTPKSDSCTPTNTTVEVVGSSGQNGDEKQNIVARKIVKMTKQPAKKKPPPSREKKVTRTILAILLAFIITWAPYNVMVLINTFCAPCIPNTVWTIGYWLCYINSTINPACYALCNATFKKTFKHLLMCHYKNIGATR

[26] = biological target: 5-hydroxytryptamine receptor 2C (Homo sapiens) (UniProt P28335)
[27] = biological target: Phosphorylase b kinase gamma catalytic chain, testis/liver isoform (Homo sapiens) (UniProt P15735); assay: Inhibition of PhKgamma2(h) at 10.0 µM in the Eurofins Kinase panel
Chain of Phosphorylase b kinase gamma catalytic chain, testis/liver isoform (Homo sapiens) (P15735 whole entry, looked up, canonical isoform): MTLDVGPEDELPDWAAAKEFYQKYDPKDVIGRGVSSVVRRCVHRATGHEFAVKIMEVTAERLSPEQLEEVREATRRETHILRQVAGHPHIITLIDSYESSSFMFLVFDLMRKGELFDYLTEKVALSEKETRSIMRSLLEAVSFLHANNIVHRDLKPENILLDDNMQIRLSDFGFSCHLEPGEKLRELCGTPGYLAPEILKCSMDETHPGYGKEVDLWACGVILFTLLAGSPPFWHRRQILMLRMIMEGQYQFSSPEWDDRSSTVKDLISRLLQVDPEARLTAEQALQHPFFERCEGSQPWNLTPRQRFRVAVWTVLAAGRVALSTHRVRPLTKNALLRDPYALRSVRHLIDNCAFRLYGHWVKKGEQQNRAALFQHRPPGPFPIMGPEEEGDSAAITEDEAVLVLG

Chain of cGMP-dependent protein kinase 2 (Homo sapiens) (Q13237 whole entry): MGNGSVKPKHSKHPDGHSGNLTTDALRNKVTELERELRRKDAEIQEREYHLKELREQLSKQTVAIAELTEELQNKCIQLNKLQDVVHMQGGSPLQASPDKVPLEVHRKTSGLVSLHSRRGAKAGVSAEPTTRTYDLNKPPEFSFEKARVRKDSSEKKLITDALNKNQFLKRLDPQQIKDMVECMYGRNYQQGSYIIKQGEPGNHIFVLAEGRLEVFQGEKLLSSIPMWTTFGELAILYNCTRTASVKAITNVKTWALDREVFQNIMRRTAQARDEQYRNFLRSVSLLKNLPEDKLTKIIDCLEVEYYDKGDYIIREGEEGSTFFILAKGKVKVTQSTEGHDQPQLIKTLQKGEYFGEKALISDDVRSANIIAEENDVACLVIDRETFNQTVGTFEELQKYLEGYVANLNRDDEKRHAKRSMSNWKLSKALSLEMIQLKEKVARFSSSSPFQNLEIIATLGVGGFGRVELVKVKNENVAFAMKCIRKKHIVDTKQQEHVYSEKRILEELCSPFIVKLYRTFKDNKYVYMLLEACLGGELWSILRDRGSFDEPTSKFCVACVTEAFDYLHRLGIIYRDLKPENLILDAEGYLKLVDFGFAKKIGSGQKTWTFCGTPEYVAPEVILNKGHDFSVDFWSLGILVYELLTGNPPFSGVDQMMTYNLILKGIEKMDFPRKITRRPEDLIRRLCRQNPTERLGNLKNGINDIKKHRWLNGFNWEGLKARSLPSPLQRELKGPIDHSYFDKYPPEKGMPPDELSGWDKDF
Chain of Serine/threonine-protein kinase TAO3 (Homo sapiens) (Q9H2K8 whole entry): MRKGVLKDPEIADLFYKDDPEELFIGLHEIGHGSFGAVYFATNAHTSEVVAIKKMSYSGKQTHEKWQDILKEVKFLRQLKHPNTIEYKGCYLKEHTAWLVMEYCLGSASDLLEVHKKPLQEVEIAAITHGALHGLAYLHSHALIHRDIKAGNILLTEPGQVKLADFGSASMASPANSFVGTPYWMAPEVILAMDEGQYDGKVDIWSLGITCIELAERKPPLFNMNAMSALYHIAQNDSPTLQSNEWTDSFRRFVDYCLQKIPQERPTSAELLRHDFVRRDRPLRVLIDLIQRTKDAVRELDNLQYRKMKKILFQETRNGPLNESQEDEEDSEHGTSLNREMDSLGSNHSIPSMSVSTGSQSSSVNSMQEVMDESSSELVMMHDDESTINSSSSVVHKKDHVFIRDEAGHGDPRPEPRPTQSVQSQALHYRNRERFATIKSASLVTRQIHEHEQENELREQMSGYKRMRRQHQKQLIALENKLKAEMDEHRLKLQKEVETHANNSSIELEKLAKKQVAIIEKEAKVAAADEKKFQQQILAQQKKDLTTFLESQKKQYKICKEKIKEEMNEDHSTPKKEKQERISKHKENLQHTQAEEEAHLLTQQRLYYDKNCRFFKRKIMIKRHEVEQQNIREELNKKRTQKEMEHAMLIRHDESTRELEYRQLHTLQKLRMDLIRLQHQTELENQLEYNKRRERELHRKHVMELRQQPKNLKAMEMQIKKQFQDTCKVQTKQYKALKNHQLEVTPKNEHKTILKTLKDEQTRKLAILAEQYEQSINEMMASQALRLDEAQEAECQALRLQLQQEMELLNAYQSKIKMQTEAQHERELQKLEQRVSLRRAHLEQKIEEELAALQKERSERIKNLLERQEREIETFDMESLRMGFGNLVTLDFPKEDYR
Chain of Mitogen-activated protein kinase 12 (Homo sapiens) (P53778 whole entry): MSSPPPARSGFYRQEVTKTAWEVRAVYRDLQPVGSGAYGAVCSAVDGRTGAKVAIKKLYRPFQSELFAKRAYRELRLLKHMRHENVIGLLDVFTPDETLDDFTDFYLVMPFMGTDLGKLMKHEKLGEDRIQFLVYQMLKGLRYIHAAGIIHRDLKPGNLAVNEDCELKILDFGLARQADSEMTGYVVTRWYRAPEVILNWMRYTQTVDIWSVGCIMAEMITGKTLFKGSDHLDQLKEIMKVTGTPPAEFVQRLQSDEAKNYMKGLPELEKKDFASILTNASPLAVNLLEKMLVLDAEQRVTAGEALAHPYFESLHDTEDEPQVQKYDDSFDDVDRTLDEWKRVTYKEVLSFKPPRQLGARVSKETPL
Chain of PI3K p110 beta/p85 alpha (Homo sapiens) (P27986 2-724 limits assumed): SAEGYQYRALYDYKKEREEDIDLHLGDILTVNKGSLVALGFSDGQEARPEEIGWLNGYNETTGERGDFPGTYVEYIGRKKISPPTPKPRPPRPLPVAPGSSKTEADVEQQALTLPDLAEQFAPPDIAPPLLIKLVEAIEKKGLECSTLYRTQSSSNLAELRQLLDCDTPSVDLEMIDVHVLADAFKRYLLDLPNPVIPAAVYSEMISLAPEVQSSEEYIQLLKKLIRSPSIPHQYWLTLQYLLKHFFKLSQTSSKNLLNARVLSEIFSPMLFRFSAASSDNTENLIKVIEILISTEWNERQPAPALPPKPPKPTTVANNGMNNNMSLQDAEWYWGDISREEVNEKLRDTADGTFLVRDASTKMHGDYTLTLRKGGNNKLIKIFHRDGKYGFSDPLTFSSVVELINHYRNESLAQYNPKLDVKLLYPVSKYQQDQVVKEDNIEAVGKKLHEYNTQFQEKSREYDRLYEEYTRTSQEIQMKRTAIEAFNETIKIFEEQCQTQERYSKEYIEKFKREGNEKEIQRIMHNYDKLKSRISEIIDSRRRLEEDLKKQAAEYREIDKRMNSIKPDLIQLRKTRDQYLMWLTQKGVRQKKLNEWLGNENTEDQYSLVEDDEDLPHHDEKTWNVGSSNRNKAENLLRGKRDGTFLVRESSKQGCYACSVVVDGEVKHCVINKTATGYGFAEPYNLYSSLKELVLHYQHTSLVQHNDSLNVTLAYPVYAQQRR
Chain of PI3K p110 beta/p85 alpha (Homo sapiens) (P42338 whole entry partner): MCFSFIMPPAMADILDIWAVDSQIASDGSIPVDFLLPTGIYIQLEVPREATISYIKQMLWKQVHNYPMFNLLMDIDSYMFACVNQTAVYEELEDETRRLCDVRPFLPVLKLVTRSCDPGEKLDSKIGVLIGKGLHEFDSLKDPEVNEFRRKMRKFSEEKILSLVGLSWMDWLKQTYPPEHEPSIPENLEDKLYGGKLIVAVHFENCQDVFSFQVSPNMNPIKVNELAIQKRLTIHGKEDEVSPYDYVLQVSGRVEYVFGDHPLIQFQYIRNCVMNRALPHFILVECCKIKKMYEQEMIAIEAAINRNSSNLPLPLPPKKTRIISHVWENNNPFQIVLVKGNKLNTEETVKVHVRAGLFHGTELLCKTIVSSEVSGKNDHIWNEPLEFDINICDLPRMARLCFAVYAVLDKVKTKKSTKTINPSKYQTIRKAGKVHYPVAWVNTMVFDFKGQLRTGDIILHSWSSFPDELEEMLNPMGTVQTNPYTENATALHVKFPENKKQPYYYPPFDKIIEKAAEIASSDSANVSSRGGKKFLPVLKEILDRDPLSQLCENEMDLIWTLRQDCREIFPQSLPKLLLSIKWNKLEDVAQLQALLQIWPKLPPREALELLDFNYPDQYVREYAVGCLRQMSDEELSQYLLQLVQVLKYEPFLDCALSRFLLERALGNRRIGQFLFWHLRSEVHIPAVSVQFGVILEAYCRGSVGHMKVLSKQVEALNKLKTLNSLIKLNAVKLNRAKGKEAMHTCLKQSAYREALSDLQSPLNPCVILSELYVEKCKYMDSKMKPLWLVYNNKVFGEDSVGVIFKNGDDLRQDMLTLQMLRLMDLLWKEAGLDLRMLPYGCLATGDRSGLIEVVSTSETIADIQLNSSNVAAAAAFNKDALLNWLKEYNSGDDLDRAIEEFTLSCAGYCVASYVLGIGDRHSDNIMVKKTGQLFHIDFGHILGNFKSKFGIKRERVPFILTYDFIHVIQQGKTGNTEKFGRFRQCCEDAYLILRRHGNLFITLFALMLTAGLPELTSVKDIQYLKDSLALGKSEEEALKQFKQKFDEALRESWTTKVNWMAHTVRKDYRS

| SMILES | inhibition [1] | inhibition [2] | inhibition [3] | inhibition [4] | inhibition [5] | inhibition [6] | inhibition [7] | inhibition [8] | inhibition [9] | inhibition [10] | inhibition [11] | inhibition [12] | inhibition [13] | inhibition [14] | inhibition [15] | inhibition [16] | inhibition [17] | inhibition [18] | inhibition [19] | inhibition [20] | also measured |
| --- | --- | --- | --- | --- | --- | --- | --- | --- | --- | --- | --- | --- | --- | --- | --- | --- | --- | --- | --- | --- | --- |
| O=c1n(Cc2cncn2-c2cccc(Cl)c2)nc(-c2ccc(Cl)cc2)n1C[C@H](O)C(F)(F)F | -8.48% | -0.06% | -2.65% | -3.79% | -1.06% | 5.16% | -2.41% | 5.49% | 2.18% | 1% | 10.8% | 0.21% | -3.28% | 6.15% | 3.23% | -3.96% | -6.37% | 3.07% | 2.85% | 0.07% | inhibition [21]: 1.49%; inhibition [22]: -2.42%; inhibition [23]: -5.11%; inhibition [24]: 7%; inhibition [25]: 17%; inhibition [26]: -1%; inhibition [27]: -3.49% |
| C[C@H](O)c1nc(Cn2nc(-c3ccc(Cl)cc3)n(C[C@H](O)C(F)(F)F)c2=O)nn1-c1cccc(Cl)c1 [PECAVAPTAN] | -5.4% | 1.76% | -7.19% | -7.04% | 3.19% | 5.15% | -1.84% | 7.5% | 1.13% | 2.79% | 4.39% | -3.93% | -2.94% | 1.42% | -1.01% | -0.09% | -4.1% | 5.55% | -7.44% | -6.4% | inhibition [21]: -5.08%; inhibition [22]: -1.96%; inhibition [23]: -1.8%; inhibition [24]: 16%; inhibition [25]: 7%; inhibition [26]: 20%; inhibition [27]: 0.74% |
